Measurements taken from article PMC3675134, “Comprehensive Enzymatic Analysis of the Cellulolytic System in Digestive Fluid of the Sea Hare Aplysia kurodai. Efficient Glucose Release from Sea Lettuce by Synergistic Action of 45 kDa Endoglucanase and 210 kDa ß-Glucosidase” (PLoS ONE, 2013).

Experiments:
210K ß-glucosidase [1] = test system: T1, 210K ß-glucosidase; experiment: 4-methylumbelliferone release, fluorometric; Lineweaver-Burk; format: biochemical, Aplysia kurodai; conditions: 37°C
T1 construct: gene 210K BGL; native, purified from digestive fluid; 210 kDa by SDS-PAGE; glycoprotein
Text: 4-methylumbelliferone release, fluorometric; Lineweaver-Burk on 210K ß-glucosidase

110K ß-glucosidase [2] = molecular target: T2, 110K ß-glucosidase (Aplysia kurodai, UniProt A0A1V1FXL2); experiment: inhibition of 4MU-ß-glucoside hydrolysis, fluorometric; Lineweaver-Burk; format: biochemical; conditions: substrate 4MU-ß-glucoside; 37°C; competitive
T2 construct: gene ApBGL; native, purified from digestive fluid; 110 kDa by SDS-PAGE; glycoprotein
T2 sequence (A0A1V1FXL2 24-994): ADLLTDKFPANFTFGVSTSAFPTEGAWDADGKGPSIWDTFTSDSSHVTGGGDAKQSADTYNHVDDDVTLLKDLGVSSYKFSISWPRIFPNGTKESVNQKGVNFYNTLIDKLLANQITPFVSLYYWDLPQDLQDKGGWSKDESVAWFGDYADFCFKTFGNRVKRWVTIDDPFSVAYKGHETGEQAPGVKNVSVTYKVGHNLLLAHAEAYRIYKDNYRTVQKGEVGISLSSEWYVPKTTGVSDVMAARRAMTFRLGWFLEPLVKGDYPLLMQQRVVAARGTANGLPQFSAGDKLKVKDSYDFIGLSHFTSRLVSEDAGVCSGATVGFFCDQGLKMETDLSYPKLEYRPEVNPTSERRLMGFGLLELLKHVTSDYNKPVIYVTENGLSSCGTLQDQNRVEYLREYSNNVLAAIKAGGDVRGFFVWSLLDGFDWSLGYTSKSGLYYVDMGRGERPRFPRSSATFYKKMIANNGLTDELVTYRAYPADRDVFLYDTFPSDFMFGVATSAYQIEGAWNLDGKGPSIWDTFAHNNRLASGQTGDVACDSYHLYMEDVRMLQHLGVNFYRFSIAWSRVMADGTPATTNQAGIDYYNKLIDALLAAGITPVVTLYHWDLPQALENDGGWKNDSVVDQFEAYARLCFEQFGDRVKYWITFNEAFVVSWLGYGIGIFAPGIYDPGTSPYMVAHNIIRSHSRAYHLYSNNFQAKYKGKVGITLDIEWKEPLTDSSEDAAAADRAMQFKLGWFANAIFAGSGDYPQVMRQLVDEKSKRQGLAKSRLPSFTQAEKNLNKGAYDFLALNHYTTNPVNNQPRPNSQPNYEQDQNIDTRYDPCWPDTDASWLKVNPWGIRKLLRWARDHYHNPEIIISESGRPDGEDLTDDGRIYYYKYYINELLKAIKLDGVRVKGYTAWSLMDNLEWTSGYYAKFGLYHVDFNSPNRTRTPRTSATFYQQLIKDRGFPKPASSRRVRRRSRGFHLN
Text: inhibition of 4MU-ß-glucoside hydrolysis, fluorometric; Lineweaver-Burk on 110K ß-glucosidase

210K ß-glucosidase [3] = molecular target: T1, 210K ß-glucosidase; experiment: inhibition of 4MU-ß-glucoside hydrolysis, fluorometric; Cornish-Bowden; format: biochemical, Aplysia kurodai; conditions: substrate 4MU-ß-glucoside; 37°C; mixed
Text: inhibition of 4MU-ß-glucoside hydrolysis, fluorometric; Cornish-Bowden on 210K ß-glucosidase

210K ß-glucosidase [4] = test system: T1, 210K ß-glucosidase; experiment: cellobiose hydrolysis; Lineweaver-Burk; format: biochemical, Aplysia kurodai; conditions: read-out: 210 K; 37°C; printed unit doubtful: the printed Vmax/Km scale implies mM; heading: 210 K
110K ß-glucosidase [5] = molecular target: T2, 110K ß-glucosidase; experiment: inhibition of 4MU-ß-glucoside hydrolysis; format: biochemical; conditions: substrate 4MU-ß-glucoside; compound name doubtful (preceding sentence speaks of conduritol B epoxide)

Molecule `Cc1cc(=O)oc2cc(O[C@@H]3O[C@H](CO)[C@H](O)[C@H](O)[C@H]3O)ccc12` [4MU-ß-galactoside] has a Km (210K ß-glucosidase [1]) of 199 ± 5 µM.

`Cc1cc(=O)oc2cc(O[C@@H]3O[C@H](CO)[C@@H](O)[C@H](O)[C@H]3O)ccc12` [4MU-ß-glucoside] was tested, and the Km (210K ß-glucosidase [1]) was 105 ± 11 µM.

In the case of `O=C1O[C@H](CO)[C@@H](O)[C@H](O)[C@H]1O` [D-glucono-1,5-lactone], the Ki (110K ß-glucosidase [2]) is reported as 3.66 ± 0.47 µM and the Ki (210K ß-glucosidase [3]) is reported as 8.1 ± 0.2 µM.

In the case of `OC[C@H]1O[C@@H](O[C@H]2[C@H](O)[C@@H](O)C(O)O[C@@H]2CO)[C@H](O)[C@@H](O)[C@@H]1O` (stereo partly drawn) [cellobiose], the Km (210K ß-glucosidase [4]) is reported as 1.93 ± 0.15 mM.

Conduritol B-sulfate was tested, and the “% inhibition at 10 mM” value (110K ß-glucosidase [5]) was 48%.
